Reference: US20120004215A1 (priority 2009, published 2012)

Target: α7-subtype of nicotinic receptors (Mus musculus, UniProt P49582)
Assay type: in vivo, mice
Conditions: ex vivo, mouse hippocampal membranes; dose inhibiting specific binding of 3H-α-bungarotoxin (1 nM) by 50%

Chain of α7-subtype of nicotinic receptors (P49582 23-502): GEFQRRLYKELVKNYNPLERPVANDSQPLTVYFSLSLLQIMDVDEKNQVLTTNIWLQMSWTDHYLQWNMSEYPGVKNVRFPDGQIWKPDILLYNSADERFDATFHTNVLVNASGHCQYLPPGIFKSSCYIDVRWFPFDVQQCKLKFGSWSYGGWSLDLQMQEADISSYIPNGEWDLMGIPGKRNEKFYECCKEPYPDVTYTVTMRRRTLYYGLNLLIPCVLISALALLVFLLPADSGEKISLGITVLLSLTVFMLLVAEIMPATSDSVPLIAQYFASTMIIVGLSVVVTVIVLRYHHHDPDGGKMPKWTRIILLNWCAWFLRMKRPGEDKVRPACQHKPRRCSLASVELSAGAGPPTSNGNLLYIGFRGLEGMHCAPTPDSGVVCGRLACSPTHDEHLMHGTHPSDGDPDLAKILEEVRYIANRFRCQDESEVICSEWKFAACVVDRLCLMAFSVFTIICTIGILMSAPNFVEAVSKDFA

For `O=c1c2ccccc2nnn1-c1cnc(N2CC[N+]3([O-])CCC2CC3)nc1` [Compound 1, 3-[2-(1-Oxy-1,4-diaza-bicyclo[3.2.2]non-4-yl)-pyrimidin-5-yl]-3H-benzo[d][1,2,3]-triazin-4-one], the “EC50 (mg/kg), Inhibition of 3H-α-Bungarotoxine Binding” value was 9.4 mg/kg.
